Laboratory results from patent US20020137929A1, “1 - (3-heterocyclylphenyl) isothiourea, -isourea, -guanidine and -amidine herbicidal agents” (Intellectual Property Department, BASF Aktiengesellschaft, priority 1998, published 2002).

Legend:
[1] = test system: ABUTH (Velvetleaf); assay: Postemergence herbicidal evaluation; type: in vivo, Abutilon theophrasti; conditions: postemergence
In short: (§1)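 Scores (0–9) reflect plant stand, vigor, malformation, size, chlorosis and general appearance relative to control, read 4 to 5 weeks after treatment and averaged where tests were repeated. Application: about 0.0156–0.500 kg/ha sprayed at 40 psi onto two-week seedlings.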

[2] = test system: AMBEL (Ragweed, Common); assay: Postemergence herbicidal evaluation; type: in vivo, Ambrosia artemisifolia; conditions: postemergence
In short: as §1

[3] = test system: ECHCG (Barnyardgrass); assay: Postemergence herbicidal evaluation; type: in vivo, Echinochloa crus-galli; conditions: postemergence
In short: as §1

[4] = test system: SETVI (Foxtail, Green); assay: Postemergence herbicidal evaluation; type: in vivo, Setaria viridis; conditions: postemergence
In short: as §1

[5] = test system: GLXMAW (Soybean, Williams); assay: Postemergence herbicidal evaluation; type: in vivo, Glycine max, (L.) Merr. cv Williams; conditions: postemergence
In short: as §1

[6] = test system: ORYSAT (Rice, Tebonnet); assay: Postemergence herbicidal evaluation; type: in vivo, Oryza sativa, (L.) Tebonnet; conditions: postemergence
In short: as §1

[7] = test system: TRZAWR (Wheat, Winter, cv Riband); assay: Postemergence herbicidal evaluation; type: in vivo, Triticum aestivum; conditions: postemergence
In short: as §1

[8] = test system: ABUTH (Velvetleaf); assay: Preemergence herbicidal evaluation; type: in vivo, Abutilon theophrasti; conditions: rated 4-5 weeks after treatment
In short: (§2)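 Herbicidal effect scored visually, 0-9, at 4 to 5 weeks against a control; compound applied preemergence by aqueous acetone spray to seeded soil at about 0.0156 to 0.500 kg/ha.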

[9] = test system: CASOB (Sicklepod); assay: Preemergence herbicidal evaluation; type: in vivo, Cassia obtusifolia; conditions: rated 4-5 weeks after treatment
In short: as §2

[10] = test system: SETVI (Foxtail, Green); assay: Preemergence herbicidal evaluation; type: in vivo, Setaria viridis; conditions: rated 4-5 weeks after treatment
In short: as §2

[11] = test system: MOOVA (Monochoria); assay: Preemergence weed control under flooded paddy conditions; type: in vivo, Monochoria vaginalis; conditions: rated 3-4 weeks after treatment
In short: (§3)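 Visual injury scored 0-9 against control three to four weeks post-treatment, greenhouse-grown. Application: acetone/water (50/50) solutions dosed directly into flood water (1.5-3 cm over silt loam, planted top 0.5 cm), roughly 0.0313 to 0.500 kg/ha active ingredient.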

[12] = test system: SAGPY (Arrowhead (Pygmaea)); assay: as above; type: in vivo, Sagittaria pygmaea; conditions: rated 3-4 weeks after treatment
In short: as §3

In the case of `Cn1c(C(F)(F)F)cc(=O)n(-c2cc(N=C3SCC(=O)N3CC(F)(F)F)c(Cl)cc2F)c1=O` [Compound 163, 3-{4-Chloro-2-fluoro-5-{[4-oxo-3-(2,2,2-trifluoroethyl)-2-thiazolidinylidene]amino}phenyl}-1-methyl-6-(trifluoromethyl)-2,4(1H,3H)-pyrimidinedione], the “herbicidal rating ABUTH” value ([1]; rate 0.0156 kg/ha) is reported as 9.0, the “herbicidal rating ABUTH” value ([1]; rate 0.0313 kg/ha) is reported as 9.0 and the “herbicidal rating ABUTH” value ([1]; rate 0.0625 kg/ha) is reported as 9.0. The “herbicidal rating AMBEL” value ([2]; rate 0.0156 kg/ha) was 9.0, the “herbicidal rating AMBEL” value ([2]; rate 0.0313 kg/ha) was 9.0 and the “herbicidal rating AMBEL” value ([2]; rate 0.0625 kg/ha) was 9.0. The “herbicidal rating ECHCG” value ([3]; rate 0.0156 kg/ha) was 0.0, the “herbicidal rating ECHCG” value ([3]; rate 0.0313 kg/ha) was 0.0 and the “herbicidal rating ECHCG” value ([3]; rate 0.0625 kg/ha) was 1.0. The “herbicidal rating SETVI” value ([4]; rate 0.0156 kg/ha) was 0.0, the “herbicidal rating SETVI” value ([4]; rate 0.0625 kg/ha) was 3.0 and the “herbicidal rating GLXMAW” value ([5]; rate 0.0156 kg/ha) was 6.0. The “herbicidal rating GLXMAW” value ([5]; rate 0.0313 kg/ha) was 7.0, the “herbicidal rating GLXMAW” value ([5]; rate 0.0625 kg/ha) was 8.0 and the “herbicidal rating ORYSAT” value ([6]; rate 0.0156 kg/ha) was 1.0. The “herbicidal rating ORYSAT” value ([6]; rate 0.0313 kg/ha) was 1.5, the “herbicidal rating ORYSAT” value ([6]; rate 0.0625 kg/ha) was 2.0 and the “herbicidal rating TRZAWR” value ([7]; rate 0.0156 kg/ha) was 3.5. The “herbicidal rating TRZAWR” value ([7]; rate 0.0313 kg/ha) was 4.0, the “herbicidal rating TRZAWR” value ([7]; rate 0.0625 kg/ha) was 4.5 and the “Preemergence herbicidal rating ABUTH” value ([8]; 0.0156 kg/ha) was 9.0. The “Preemergence herbicidal rating ABUTH” value ([8]; 0.0313 kg/ha) was 9.0, the “Preemergence herbicidal rating ABUTH” value ([8]; 0.0625 kg/ha) was 9.0 and the “Preemergence herbicidal rating ABUTH” value ([8]; 0.1250 kg/ha) was 9.0. The “Preemergence herbicidal rating ABUTH” value ([8]; 0.2500 kg/ha) was 9.0, the “Preemergence herbicidal rating CASOB” value ([9]; 0.0156 kg/ha) was 0.0 and the “Preemergence herbicidal rating CASOB” value ([9]; 0.0313 kg/ha) was 0.0. For the same molecule, the “Preemergence herbicidal rating CASOB” value ([9]; 0.0625 kg/ha) was 0.0, the “Preemergence herbicidal rating CASOB” value ([9]; 0.1250 kg/ha) was 0.0 and the “Preemergence herbicidal rating CASOB” value ([9]; 0.2500 kg/ha) was 5.0. The “Preemergence herbicidal rating SETVI” value ([10]; 0.0156 kg/ha) was 9.0, the “Preemergence herbicidal rating SETVI” value ([10]; 0.0313 kg/ha) was 9.0 and the “Preemergence herbicidal rating SETVI” value ([10]; 0.0625 kg/ha) was 9.0. The “Preemergence herbicidal rating SETVI” value ([10]; 0.1250 kg/ha) was 9.0, the “Preemergence herbicidal rating SETVI” value ([10]; 0.2500 kg/ha) was 9.0 and the “herbicidal effect rating, MOOVA” value ([11]; 0.0313 kg/ha) was 9.0. The “herbicidal effect rating, MOOVA” value ([11]; 0.0625 kg/ha) was 9.0, the “herbicidal effect rating, MOOVA” value ([11]; 0.1250 kg/ha) was 9.0 and the “herbicidal effect rating, MOOVA” value ([11]; 0.2500 kg/ha) was 9.0. The “herbicidal effect rating, SAGPY” value ([12]; 0.0313 kg/ha) was 2.0, the “herbicidal effect rating, SAGPY” value ([12]; 0.0625 kg/ha) was 3.0 and the “herbicidal effect rating, SAGPY” value ([12]; 0.1250 kg/ha) was 6.0. For the same molecule, the “herbicidal effect rating, SAGPY” value ([12]; 0.2500 kg/ha) was 7.0.
In the case of `C#CC(C)N1C(=O)CSC1=Nc1cc(-n2c(=O)cc(C(F)(F)F)n(C)c2=O)c(F)cc1Cl` (stereo not drawn) [Compound 165, 3-{4-Chloro-2-fluoro-5-{[3-(1-methyl-2-propynyl)-4-oxo-2-thiazolidinylidene]amino}phenyl}-1-methyl-6-(trifluoromethyl)-2,4(1H,3H)-pyrimidinedione], the “herbicidal rating ABUTH” value ([1]; rate 0.0156 kg/ha) is reported as 9.0, the “herbicidal rating ABUTH” value ([1]; rate 0.0313 kg/ha) is reported as 9.0 and the “herbicidal rating ABUTH” value ([1]; rate 0.0625 kg/ha) is reported as 9.0. The “herbicidal rating ABUTH” value ([1]; rate 0.1250 kg/ha) was 9.0, the “herbicidal rating AMBEL” value ([2]; rate 0.0156 kg/ha) was 2.0 and the “herbicidal rating AMBEL” value ([2]; rate 0.0313 kg/ha) was 6.0. The “herbicidal rating AMBEL” value ([2]; rate 0.0625 kg/ha) was 7.0, the “herbicidal rating AMBEL” value ([2]; rate 0.1250 kg/ha) was 9.0 and the “herbicidal rating ECHCG” value ([3]; rate 0.0156 kg/ha) was 2.0. The “herbicidal rating ECHCG” value ([3]; rate 0.0313 kg/ha) was 4.0, the “herbicidal rating ECHCG” value ([3]; rate 0.0625 kg/ha) was 3.0 and the “herbicidal rating ECHCG” value ([3]; rate 0.1250 kg/ha) was 5.0. For the same molecule, the “herbicidal rating SETVI” value ([4]; rate 0.0156 kg/ha) was 2.0, the “herbicidal rating SETVI” value ([4]; rate 0.0313 kg/ha) was 6.0 and the “herbicidal rating SETVI” value ([4]; rate 0.0625 kg/ha) was 9.0. The “herbicidal rating SETVI” value ([4]; rate 0.1250 kg/ha) was 7.0, the “herbicidal rating GLXMAW” value ([5]; rate 0.0156 kg/ha) was 5.0 and the “herbicidal rating GLXMAW” value ([5]; rate 0.0313 kg/ha) was 5.0. The “herbicidal rating GLXMAW” value ([5]; rate 0.0625 kg/ha) was 6.5, the “herbicidal rating GLXMAW” value ([5]; rate 0.1250 kg/ha) was 7.0 and the “herbicidal rating ORYSAT” value ([6]; rate 0.0156 kg/ha) was 2.0. The “herbicidal rating ORYSAT” value ([6]; rate 0.0313 kg/ha) was 1.5, the “herbicidal rating ORYSAT” value ([6]; rate 0.0625 kg/ha) was 3.0 and the “herbicidal rating ORYSAT” value ([6]; rate 0.1250 kg/ha) was 4.0. For the same molecule, the “herbicidal rating TRZAWR” value ([7]; rate 0.0156 kg/ha) was 3.0, the “herbicidal rating TRZAWR” value ([7]; rate 0.0313 kg/ha) was 3.0 and the “herbicidal rating TRZAWR” value ([7]; rate 0.0625 kg/ha) was 4.0. For the same molecule, the “herbicidal rating TRZAWR” value ([7]; rate 0.1250 kg/ha) was 5.0, the “Preemergence herbicidal rating ABUTH” value ([8]; 0.0156 kg/ha) was 0.0 and the “Preemergence herbicidal rating ABUTH” value ([8]; 0.0313 kg/ha) was 0.0. For the same molecule, the “Preemergence herbicidal rating ABUTH” value ([8]; 0.0625 kg/ha) was 0.0, the “Preemergence herbicidal rating ABUTH” value ([8]; 0.1250 kg/ha) was 9.0 and the “Preemergence herbicidal rating ABUTH” value ([8]; 0.2500 kg/ha) was 9.0. The “Preemergence herbicidal rating ABUTH” value ([8]; 0.5000 kg/ha) was 9.0, the “Preemergence herbicidal rating CASOB” value ([9]; 0.0313 kg/ha) was 0.0 and the “Preemergence herbicidal rating CASOB” value ([9]; 0.0625 kg/ha) was 0.0. The “Preemergence herbicidal rating CASOB” value ([9]; 0.1250 kg/ha) was 1.0, the “Preemergence herbicidal rating CASOB” value ([9]; 0.2500 kg/ha) was 7.0 and the “Preemergence herbicidal rating CASOB” value ([9]; 0.5000 kg/ha) was 7.0. For the same molecule, the “Preemergence herbicidal rating SETVI” value ([10]; 0.0156 kg/ha) was 0.0, the “Preemergence herbicidal rating SETVI” value ([10]; 0.0313 kg/ha) was 6.0 and the “Preemergence herbicidal rating SETVI” value ([10]; 0.0625 kg/ha) was 6.0. The “Preemergence herbicidal rating SETVI” value ([10]; 0.1250 kg/ha) was 9.0, the “Preemergence herbicidal rating SETVI” value ([10]; 0.2500 kg/ha) was 9.0 and the “Preemergence herbicidal rating SETVI” value ([10]; 0.5000 kg/ha) was 9.0. For the same molecule, the “herbicidal effect rating, MOOVA” value ([11]; 0.0313 kg/ha) was 9.0, the “herbicidal effect rating, MOOVA” value ([11]; 0.0625 kg/ha) was 9.0 and the “herbicidal effect rating, MOOVA” value ([11]; 0.1250 kg/ha) was 9.0. The “herbicidal effect rating, MOOVA” value ([11]; 0.2500 kg/ha) was 9.0, the “herbicidal effect rating, SAGPY” value ([12]; 0.0313 kg/ha) was 4.0 and the “herbicidal effect rating, SAGPY” value ([12]; 0.0625 kg/ha) was 5.0. For the same molecule, the “herbicidal effect rating, SAGPY” value ([12]; 0.1250 kg/ha) was 4.0 and the “herbicidal effect rating, SAGPY” value ([12]; 0.2500 kg/ha) was 7.0.
